Test results reported in publication PMC11003925, “Antimicrobial activity and properties of de novo design of short synthetic lipopeptides” (Folia Microbiologica, 2024).
In brackets after ≈: the same amount, converted by molar mass. Like-named read-outs stand apart in the source and are kept apart here. Residues, ends and D or L forms follow the SMILES beside them. *: point of attachment. Lithocholoyl = C[C@H](CCC(=O)*)[C@H]1CC[C@H]2[C@@H]3CC[C@@H]4C[C@H](O)CC[C@]4(C)[C@H]3CC[C@]12C

Assays:
DNA = conditions: ref Ball et al. [2004]; cited from earlier work
From the text: The majority of the known antimicrobial peptides have been isolated from natural sources. Recently genomic and proteomic methods have also been applied for peptide identification. Knowledge obtained by both classical and novel methods can be used to design the chemical synthesis of new peptide compounds with biological properties. The sequence analysis of natural antimicrobial peptides led to a template, with which it is possible to generate active AMPs (Tossi et al. [1997]; Giangaspero et al. [2001]; Tossi et al. [2000]). We designed three scrambled hexapeptides, one according to this templat ...

E. coli DBM 3001 = format: cell-based; conditions: DBM 3001, 25 h
Description: (§1) A Bioscreen C automated microbiology growth curve analysis system (Growth Curves, Piscataway, NJ, USA) was used for the quantitative determination of antimicrobial activity (minimal inhibitory concentration, MIC) of PAL/LCA-peptides. Optical density was measured with a wide bandpass filter (wavelength range 420–580 nm) at regular intervals and temperatures. This assay was performed in a special microtiter plate (10 × 10 wells) that allowed the simultaneous testing of a large number of samples against several microorganisms. The total testing volume was 100 µL, obtained by mixing 10 µL of microbial culture with OD600 equal to 0.1 with growth medium and a solution of the tested compounds. The positive controls were vancomycin and tetracycline for Bacillus subtilis (100 µg/mL) for Gram-positive bacteria, kanamycin, and tetracycline for Acinetobacter baumannii (100 µg/mL) for Gram-negative bacteria, and clotrimazole or amphotericin (100 µg/mL) for fungi. The maximal concentration of tested lipoproteins was 1 mg/mL. A pure growth medium was used as the negative control. The measurement period was 25 h. The lowest concentration with a 100% inhibition effect for 24 h of incubation was chosen as the MIC. The antibacterial activity of each compound was expressed as the minimum inhibitory concentration MIC (MIC is the lowest concentration of the compound needed to inhibit the growth of bacterial cells) and IC50 (IC50 is the concentration of the compound needed to inhibit the growth of bacterial cells by 50%).

E. faecalis DBM 3075 = format: cell-based; conditions: for IC50: DBM 3075, 25 h
Description: as §1

Ps. aeruginosa DBM 3081 = format: cell-based, Pseudomonas aeruginosa; conditions: 25 h
Description: as §1

B. subtilis DBM 3006 = format: cell-based, Bacillus subtilis; conditions: for MIC: DBM 3006, 24 h; for IC50: DBM 3006, 25 h
Description: as §1

M. luteus DBM 3053 = format: cell-based, Micrococcus luteus; conditions: for MIC: DBM 3053, 24 h; for IC50: DBM 3053, 25 h
Description: as §1

Staph. aureus DBM 3002 = format: cell-based, Staphylococcus aureus; conditions: for MIC: 24 h; for IC50: 25 h
Description: as §1

Staph. aureus MRSA1 [1] = format: cell-based, Staphylococcus aureus; conditions: for MIC: 24 h; for IC50: 25 h
Description: as §1

C. tropicalis DBM 2166 = format: cell-based, Candida tropicalis; conditions: for IC50: DBM 2166, 25 h
Description: as §1

Staph. aureus MRSA1 [2] = format: cell-based, Staphylococcus aureus; conditions: 2xMIC, 37 °C
Description: This assay was used to determine how quick the effect of PAL/LCA-peptides is on bacteria, as well as whether the activity of these compounds is dependent on the presence of active bacterial metabolism (Kamysz et al. [2007]). The bacterial cultures were incubated overnight at 37 °C in Mueller–Hinton’s broth 2 or potassium phosphate buffer (0.1 M, pH 7). Cultures were diluted to OD600 equal to 0.1 and divided into 2 samples, and the final volume of each sample was 1 mL; after that, they were centrifuged (5000 × g, 10 min) to collect bacteria. […] The samples were incubated at 37 °C. At specific time intervals, samples of bacterial suspension were taken, diluted, and spread on Petri dishes with Mueller–Hinton’s agar to count the number of surviving cells as colony-forming units (CFU). The whole experiment lasted 24 h.

bacterial membrane = assay: Membrane disruption (released lactate dehydrogenase activity); format: cell-based, Staphylococcus aureus; conditions: 1 h incubation at 37 °C, LDH kit, triplets
Description: The disruption of the microbial membrane was followed by the detection of lactate dehydrogenase activity released from the intracellular space using a Cytotoxicity Detection Kit (LDH) from Roche (Korzeniewski and Callewaert [1983]; Macurkova et al. [2014]) after 1 h incubation at 37 °C with the PAL/LCA-peptide. The culture supernatant was collected and incubated with the reaction mixture from the kit. In the first step, NAD^+ is reduced to NADH + H^+ by the LDH-catalyzed conversion of lactate to pyruvate. In the second step, the catalyst (diaphorase) transfers H/H^+ from NADH + H^+ to the tetrazolium salt 2-(4-iodophenyl)-3-(4-nitrophenyl)-5-phenyl-2H-tetrazolium chloride (INT), which is reduced to formazan. The formazan dye formed is red and water-soluble and gives a broad absorption maximum at 500 nm. An increase in the amount of dead or plasma membrane-damaged cells results in an increase in the LDH activity in the cell culture supernatant.
To determine the degree of damage to the cell membrane (%) by the tested substances, averages of absorbances (triplets) were calculated from the measured values for the samples, controls, and pure medium. Subsequently, the absorbance average for the clean medium (background) was subtracted from all averages obtained in this way. The degree of damage to the cell membrane by the tested substances was expressed as follows: membranedamage%=((AVZ-∅ANK)/(∅APK-ANK))∙100 ∅AVZ⋯averageabsorbanceofsample ∅ANK⋯averageabsorbanceofnegativecontrol ∅APK⋯averageabsorbanceofpositivecontrol

Staph. aureus = assay: Transmission electron microscopy of treated bacteria; format: cell-based, Staphylococcus aureus; conditions: 1 to 4 h incubation; media with (Mueller–Hinton broth 2) and without nutrients (potassium phosphate buffer)
Description: Pictures of damaged bacterial cells were obtained by transmission electron microscopy after 1 to 4 h of incubation. Cells of the Gram-positive bacterial strains were not stained. A JEOL JEM-1010 transmission electron microscope (JEOL, Tokyo, Japan) equipped with a MegaView III CCD camera was used for visualization, and evaluation was performed with the program for image analysis AnalySIS software v. 2.0 (Soft Imaging Systems). The samples were plated on a carbon-coated electron microscopic grid and observed with an accelerating voltage of 80 kV.

HEK293T = assay: Cytotoxicity assay (xCELLigence impedance); format: cell-based, human; conditions: 24 h exposure
Description: (§2) Experiments were carried out using an xCELLigence RTCA DP Instrument (Roche Diagnostics GmbH, Mannheim, Germany) which was placed into an incubator (37 °C and 5% CO2). Cell proliferation and cytotoxicity experiments were performed using modified 16-well plates (E-plate, Roche Diagnostics GmbH, Mannheim, Germany). Microelectrodes were attached to the bottom of the wells for the impedance-based detection of attachment, spreading, and proliferation of the cells (Stoddart [2011]). This system monitors cellular events in real time without the incorporation of labels by measuring electrical impedance across an interdigitated microelectrode integrated into the bottom of this special tissue culture plate. This impedance measurement improves upon conventional endpoint assays and provides quantitative information about the biological status of the cells, including cell number, adhesion, viability, and morphology. Ninety microliters of cultivation medium was used for the blank sample, and subsequently, 100 µL of HepG2 or HEK293T cell suspension (7 × 10^5 cells/mL) was added and placed into the incubator (37 °C, 95% humidity, 5% CO2). […] Chrysophsin-3 at a concentration of 100 µg/mL was used as a positive control and solvent (deionized water) as a negative control. Subsequent incubation was performed for at least an additional 24 h. The result of the measurement was viability curves. After the measurement, percentages of tissue culture growth inhibition were calculated for all the tested substances, as follows: %inhibition=(1-(ΔϕCIsample)/(ΔϕCIcontrol))·100
(§3) Δ∅CIsample … the difference between the first and last average CI (cell index) values of the tissue culture in the presence of the tested sample.
(§4) Δ∅CIcontrol … the difference between the first and last average CI values of the tissue culture itself.

HepG2 = assay: Cytotoxicity assay (xCELLigence impedance); format: cell-based, human; conditions: for % inhibition: 24 h exposure
Description: as §2, §3, §4

A. baumannii DBM 3183 = assay: microbe, parasite or virus in culture; format: cell-based, Acinetobacter baumannii; conditions: DBM 3183, 25 h
Description: as §1

[3] = tested on: plasmid pBluescript II KS-; assay: DNA binding assay (gel retardation); conditions: 50 ng DNA, 1 h room temperature, 1% agarose gel
Description: This assay was performed as described by Park et al. ([1998]), with a few modifications. […] The reaction mixture was incubated at room temperature for 1 h. Subsequently, 4 µL of native loading buffer (10% Ficol, 10 mM Tris–HCl (pH 7.5), 50 mM EDTA, 0.25% bromophenol blue) was added. An aliquot was applied to 1% agarose gel electrophoresis in 0.5xTris borate-EDTA buffer. Circular plasmid DNA was isolated from (Luria–Bertani medium with AMPI in final concentration 100 µg/mL) bacterial strain E. coli DH5α / pBluescriptII KS- that had been grown overnight, and linearization was performed overnight by enzymatic reaction using restriction endonuclease EcoRV at 37 °C. The evaluation was performed by visualizing the DNA with the intercalation dye Midori Green Advanced DNA Stain under UV light. Reduced electrophoretic mobility compared to the control is considered to be evidence of peptide binding to DNA.
According to the previous results, we decided to clarify one of the possible molecular interaction mechanisms, the ability of the studied lipopeptides to bind microbial plasmid DNA. Based on the assumption that pore formation is only one of the influencing factors, which arose from previous results, the effect on one of the possible intracellular targets, DNA, was determined. This determination was carried out on isolated plasmid DNA, specifically on two plasmids, pGreen 0029 and pBluescript II KS- in circular and linearized form.

Structure (SMILES)	IC50 (E. coli DBM 3001)	IC50 (E. faecalis DBM 3075)	IC50 (Ps. aeruginosa DBM 3081)	MIC (B. subtilis DBM 3006) [µg/mL]	IC50 (B. subtilis DBM 3006) [µg/mL]	MIC (M. luteus DBM 3053) [µg/mL]	IC50 (M. luteus DBM 3053) [µg/mL]	MIC (Staph. aureus DBM 3002) [µg/mL]	IC50 (Staph. aureus DBM 3002) [µg/mL]	MIC (Staph. aureus MRSA1 [1]) [µg/mL]	IC50 (Staph. aureus MRSA1 [1]) [µg/mL]	IC50 (C. tropicalis DBM 2166) [µg/mL]	morphological effect on bacterial cells (TEM) (Staph. aureus)	% inhibition (HEK293T; c 50 µg/mL) [%]	% inhibition (HEK293T; c 100 µg/mL) [%]	% inhibition (HEK293T; c 200 µg/mL) [%]	% inhibition (HepG2; c 50 µg/mL) [%]	% inhibition (HepG2; c 100 µg/mL) [%]	further results
C[C@H](CCC(=O)O)[C@H]1CC[C@H]2[C@@H]3CC[C@@H]4C[C@H](O)CC[C@]4(C)[C@H]3CC[C@]12C [LCA, lithocholic acid]	–	–	–	–	–	–	–	–	–	–	–	–	–	–	–	–	–	–	concentration range in which mutagenic factor (DNA): 200 to 400 µM
CC(C)C[C@H](NC(=O)CC[C@@H](C)[C@H]1CC[C@H]2[C@@H]3CC[C@@H]4C[C@H](O)CC[C@]4(C)[C@H]3CC[C@]12C)C(=O)N[C@H](C(=O)N[C@@H](CCCCN)C(=O)N[C@@H](CCCNC(=N)N)C(=O)N[C@@H](C)C(=O)NCC(N)=O)C(C)C [SHP-1.3, LCA-LVKRAG-NH2] (Lithocholoyl-LVKRAG-NH2)	N / > 100.0 µg/mL	100.0 µg/mL (≈ 100 µM)	N / > 100.0 µg/mL	31.5 (≈ 31.5 µM)	40.0 (≈ 40 µM)	5.5 (≈ 5.5 µM)	10.0 (≈ 10 µM)	33.0 (≈ 33 µM)	50.0 (≈ 50 µM)	30.6 (≈ 30.6 µM)	50.0 (≈ 50 µM)	30.0 (≈ 30 µM)	damaging cellular envelopes	63.8 ± 9.6	72.0 ± 10.8	84.1 ± 12.6	57.4 ± 8.6	92.8 ± 13.9	MIC (E. faecalis DBM 3075; DBM 3075, 24 h): 71.5 µg/mL (≈ 71.5 µM); MIC (C. tropicalis DBM 2166; first value of cell 'MIC / IC50', 100% inhibition for 24 h): 10.3 µg/mL (≈ 10.3 µM); bacteria killed within half an hour (Staph. aureus MRSA1 [2]; about 10^7 cells, SHP-1.2 only in medium with nutrients, SHP-1.3 in both media): 100%; killing activity (%) (Staph. aureus MRSA1 [2]; KP (potassium phosphate buffer, without nutrients)): 100 ± 18%; killing activity (%) (Staph. aureus MRSA1 [2]; MHB (Mueller–Hinton broth II, with nutrients)): 100 ± 12%; Membrane damage (%) (bacterial membrane; KP (potassium phosphate buffer)): 30 ± 5%; Membrane damage (%) (bacterial membrane; MHB (Mueller–Hinton broth II)): 0 ± 5%; % inhibition (HepG2; c 200 µg/mL): 97.8 ± 14.7%; efficiency on HepG2 cells (HepG2; concentration not given): 97%
CC(C)C[C@H](NC(=O)CC[C@@H](C)[C@H]1CC[C@H]2[C@@H]3CC[C@@H]4C[C@H](O)CC[C@]4(C)[C@H]3CC[C@]12C)C(=O)N[C@H](C(=O)N[C@@H](CCCCN)C(=O)NCC(=O)N[C@@H](C)C(=O)N[C@@H](CCCNC(=N)N)C(N)=O)C(C)C [SHP-2.3, LCA-LVKGAR-NH2] (Lithocholoyl-LVKGAR-NH2)	N / > 100.0 µg/mL	N / > 100.0 µg/mL	N / > 100.0 µg/mL	6.9 (≈ 6.9 µM)	20.0 (≈ 20 µM)	1.6 (≈ 1.6 µM)	5.0 (≈ 5 µM)	31.9 (≈ 31.9 µM)	50.0 (≈ 50 µM)	25.1 (≈ 25.1 µM)	50.0 (≈ 50 µM)	75.0 (≈ 75 µM)	damaging cellular envelopes	25.6 ± 3.8	42.2 ± 6.3	85.1 ± 12.8	7.4 ± 1.1	0.0 ± 2.2	IC50 (A. baumannii DBM 3183): N / > 100.0 µg/mL; MIC (C. tropicalis DBM 2166; DBM 2166, 24 h): 56.4 µg/mL (≈ 56.4 µM); weight ratio lipopeptide:DNA influencing electrophoretic mobility ([3]; circular plasmid): 10.0; weight ratio lipopeptide:DNA influencing electrophoretic mobility ([3]; linearized plasmid): 10.0
